From patent US10000525B2, “Non-hormonal steroid modulators of NF-κB for treatment of disease” (ReveraGen Biopharma, Inc, priority 2010, dated 2018) come the findings set out here.

Each structure is given as a SMILES string.

The subject of test [1] is mdx mice. The test can be described thus: In vivo mdx mouse model of dystrophy: body weight and muscle mass. The conditions noted are these: 5 mg/kg/day per oral in feed, at 33.8 weeks age. The method, then: (§1) Separate groups (n=12-14) of mdx mice were treated with prednisolone (5 mg/kg/day; per oral in feed), Example 1 (20 and 40 mg/kg/day; per oral in feed) and Example 2 (20 and 40 mg/kg/day; per oral in feed) for 3 months. All mice underwent 30 min biweekly treadmill exercise during the treatment duration to unmask the mild disease phenotype of mdx mouse model.

Test [2] relates to extensor digitorum longus (EDL) muscle. The experiment in a line: mdx mouse model: in vitro force contractions of EDL muscle. Type of test: in vivo. The settings on record: mdx mice, prednisolone 5 mg/kg/day per oral in feed, 3 months. The method, then: as §1
The distal tendon of the extensor digitorum longus (EDL) muscle was tied securely to the lever arm of a servomotor/force transducer (model 305B, Aurora Scientific, Richmond Hill, ON, Canada) and the proximal tendon to a tissue clamp. Muscles were stimulated between two platinum electrodes. […] With the muscle held at Lo using stimulation frequencies of 30, 50, 80, 100, 120 and 150 Hz, the maximum isometric tetanic force (Po) developed during a 300 ms train of stimulation pulses was recorded for the EDL muscle. The muscle length was then measured with calipers and after removal of the muscle from the bath the mass of the muscle was determined. For each muscle, the optimum fiber length (Lf) was calculated by multiplying Lo by a previously determined Lf/Lo ratio of 0.45. […]

Test [3] has as its system mdx mice. The test can be described thus: mdx mouse model: histological evaluation (H&E) of gastrocnemius muscle. The class given is in vivo. The settings on record: for degeneration of skeletal muscle (H&E) / inflammation of skeletal muscle (H&E) / regenerating muscle fibers (H&E): 20 and 40 mg/kg/day per oral in feed, 3 months, in comparison to untreated and prednisolone treated mdx mice. The method, then: as §1
Hematoxylin and Eosin staining of gastrocnemius muscle of untreated mdx mice show significant degeneration and inflammation. […] Continuous administration of prednisolone appeared to increase degeneration and decrease in regeneration of dystrophic skeletal muscle.

[4] abbreviates: continuous administration, 5 mg/kg/day per oral in feed.

Turning to `C[C@]12C=CC(=O)C=C1CC[C@@H]1[C@@H]2[C@@H](O)C[C@@]2(C)[C@H]1CC[C@]2(O)C(=O)CO` [Prednisolone, reference compound], the “body weight versus untreated mice” value in the test with mdx mice [1] is given as “significantly lower body weight”. For the same compound, the “specific force of EDL muscle, versus untreated group” value in test [2] is “no statistically significant (P<0.05) difference”. Also, in the test on mdx mice [3] (setting [4]), the “degeneration of dystrophic skeletal muscle (H&E)” value is recorded as “increase” and the “regeneration of dystrophic skeletal muscle (H&E)” value is reported as “decrease”.

On to `C[C@]12CCC(=O)C=C1CCC1C2=CC[C@@]2(C)C1CC[C@]2(O)C(=O)CO` (stereo partly drawn) [Example 1, (10S,13S,17R)-17-hydroxy-17-(2-hydroxyacetyl)-10,13-dimethyl-6,7,8,10,12,13,14,15,16,17-decahydro-1H-cyclopenta[a]phenanthren-3(2H)-one], for which, in the test on mdx mice [3], the “degeneration of skeletal muscle (H&E)” value is on record as “significant decrease”, the “inflammation of skeletal muscle (H&E)” value is listed as “significant decrease” and the “regenerating muscle fibers (H&E)” value is “increase”.

With `C[C@]12C=CC(=O)C=C1CCC1C2=CC[C@@]2(C)C1CC[C@]2(O)C(=O)CO` (stereo partly drawn) [Example 2, (10S,13S,17R)-17-hydroxy-17-(2-hydroxyacetyl)-10,13-dimethyl-6,7,8,10,12,13,14,15,16,17-decahydro-3H-cyclopenta[a]phenanthren-3-one], in the test with mdx mice [3], the “degeneration of skeletal muscle (H&E)” value is recorded as “significant decrease”, the “inflammation of skeletal muscle (H&E)” value is listed as “significant decrease” and the “regenerating muscle fibers (H&E)” value is “increase”.
